Assay [1] has as its system RENCA cells. In words: Histological examination of agarose coated agarose beads containing RENCA cells one week after drug exposure. It is filed as cell-based. Also noted: key to Effect: −: no change; +: complete loss of cell viability; +/−: an intermediate effect. To be noted: for Effect: histology one week following exposure; for Destruction of cells within the encapsulated tumor colonies: beads treated with the drug. The protocol:
Agarose coated, agarose beads containing RENCA cells were prepared in accordance with Smith, et al., Canc Res., 71(3): 716-724 (2011); and Smith et al., Canc. Res. 71(3): 725-735 (2011), the disclosures of which are incorporated by reference. The resulting beads were cultured in medium for 12 weeks.
Samples of beads were then exposed to a single, known anti-cancer drug, at one of three varying concentrations. The exposure involved incubation of the beads in the presence of the drug for a period of time based upon the known, half life of the drug.
Following incubation, the beads were washed, twice, and transferred to naïve culture media. Controls were also prepared, which included untreated beads, as well as beads exposed to whatever vehicle was used to solubilize the drug.
Histological examination of the beads was undertaken one week following exposure to the drug. […]

Assay [2] relates to RENCA cells. Description: 18 week culture of drug treated RENCA beads, sectioned and stained to count cell nuclei, normalized to DMSO treated beads. As to conditions: for beads that developed 1 or 2 large colonies: week 18. The class given is cell-based. The protocol:
The Paclitaxel and Docetaxel treated beads were cultured, under standard conditions, as were control beads which had been exposed to DMSO, which was the vehicle for delivery of the two drugs. The culture period was 18 weeks.
Approximately 10% of the beads developed 1 or 2 large colonies, at week 18.
In order to quantify the cell loss, representative beads from the DMSO control, Paclitaxel and Docetaxel groups were sectioned and stained, using standard methods, in order to permit counting of cell nuclei. Results were normalized to the DMSO treated beads.
In the case of treatment with Paclitaxel, there was an initial loss over weeks 1-3, of about 25% of cells per colony. The majority of colonies did contain viable cells. […] In the case of docetaxel treated beads, these lost viable cells very rapidly, such that only 1-2 viable cells were present in the colonies 6 weeks after treatment.

Each structure is given as a SMILES string. “Also recorded” adds a separate entry of the source.

With `N.N.O=C([O-])C1(C(=O)[O-])CCC1.[Pt+2]` [Carboplatin], the Effect entry in the assay on RENCA cells [1] (Treatment time 5 days, dose 25 μg/ml) is listed as “+/−”; in the assay with RENCA cells [1] (Treatment time 5 days, dose 250 μg/ml), “+”; with RENCA cells [1] (Treatment time 5 days, dose 2500 μg/ml), “+”.

Turning to `N.N.[Cl][Pt][Cl]` [Cisplatin], the Effect result in the assay with RENCA cells [1] (Treatment time 1 hr, dose 60 ng/ml) was “−”; with RENCA cells [1] (Treatment time 1 hr, dose 600 ng/ml), “−”; in the assay on RENCA cells [1] (Treatment time 1 hr, dose 6000 ng/ml), “−”.

With `CC(=O)O[C@@]12CO[C@@H]1C[C@H](O)[C@@]1(C)C(=O)[C@H](O)C3=C(C)[C@@H](OC(=O)[C@H](O)[C@@H](NC(=O)OC(C)(C)C)c4ccccc4)C[C@@](O)([C@@H](OC(=O)c4ccccc4)[C@H]21)C3(C)C` [Docetaxel], the Effect entry with RENCA cells [1] (Treatment time 1 day, dose 0.5 μg/ml) is given as “+/−”; in the assay on RENCA cells [1] (Treatment time 1 day, dose 5 μg/ml), “+/−”; in the assay on RENCA cells [1] (Treatment time 1 day, dose 50 μg/ml) it was “+/−”. In addition, in the assay on RENCA cells [1], the “Destruction of cells within the encapsulated tumor colonies” value is recorded as “did not destroy all of the cells”. In addition, the “viable cells per colony” value with RENCA cells [2] (5 μg/ml, 6 weeks post-treatment) is reported as 1-2 cells per colony. Further, the “beads that developed 1 or 2 large colonies” value is listed as “Approximately 10%” in the assay with RENCA cells [2] (5 μg/ml) and “about 10%” with RENCA cells [2] (5 μg/ml, listed as docetaxel).

For the compound `COc1cccc2c1C(=O)c1c(O)c3c(c(O)c1C2=O)C[C@@](O)(C(=O)CO)C[C@@H]3O[C@H]1C[C@H](N)[C@H](O)[C@H](C)O1` [Doxorubicin], the Effect result in the assay on RENCA cells [1] (Treatment time 2 days, dose 5 μg/ml) is “+”; with RENCA cells [1] (Treatment time 2 days, dose 50 μg/ml), “+”; in the assay on RENCA cells [1] (Treatment time 2 days, dose 100 μg/ml) it was “+”.

Consider `CN(Cc1cnc2nc(N)nc(N)c2n1)c1ccc(C(=O)N[C@@H](CCC(=O)O)C(=O)O)cc1` [Methotrexate], for which the Effect result with RENCA cells [1] (Treatment time 1 day, dose 0.45 μg/ml) is reported as “−”; with RENCA cells [1] (Treatment time 1 day, dose 4.5 μg/ml), “−”; with RENCA cells [1] (Treatment time 1 day, dose 45 μg/ml), “−”.

On to `CC(=O)O[C@H]1C(=O)[C@@]2(C)[C@H]([C@H](OC(=O)c3ccccc3)[C@]3(O)C[C@H](OC(=O)[C@H](O)[C@@H](NC(=O)c4ccccc4)c4ccccc4)C(C)=C1C3(C)C)[C@]1(OC(C)=O)CO[C@@H]1C[C@@H]2O` [Paclitaxel], for which the Effect result in the assay with RENCA cells [1] (Treatment time 1 day, dose 0.35 μg/ml) was “−”; in the assay on RENCA cells [1] (Treatment time 1 day, dose 3.5 μg/ml) it was “+/−”; in the assay on RENCA cells [1] (Treatment time 1 day, dose 35 μg/ml), “+/−”. Also, in the assay with RENCA cells [1], the “Destruction of cells within the encapsulated tumor colonies” value is given as “did not destroy all of the cells”. Besides, the “cell number at week 18” value with RENCA cells [2] (3.5 μg/ml, 18 weeks culture) is reported as “return to the pre-treatment number of cells; also recorded: equivalent to the control DMSO beads”. Also, in the assay on RENCA cells [2] (3.5 μg/ml, first 6 weeks post-treatment), the “cell number in beads over time after treatment” value was “loss of cells for 6 weeks”. Moreover, in the assay with RENCA cells [2] (weeks 1-3 after treatment, normalized to DMSO treated beads), the “initial loss of cells per colony” value is “about 25%”.

Regarding `CCC1=C[C@@H]2CN(C1)Cc1c([nH]c3ccccc13)[C@@](C(=O)OC)(c1cc3c(cc1OC)N(C)[C@H]1[C@@](O)(C(=O)OC)[C@H](OC(C)=O)[C@]4(CC)C=CCN5CC[C@]31[C@@H]54)C2` [Vinorelbine], the Effect entry with RENCA cells [1] (Treatment time 2 days, dose 0.1 μg/ml) is “−”; in the assay on RENCA cells [1] (Treatment time 2 days, dose 1 μg/ml), “+/−”; in the assay with RENCA cells [1] (Treatment time 2 days, dose 10 μg/ml) it was “+/−”.

The values are drawn from patent US9375448B2, “Method for isolating a chemotherapeutic agent resistant cancer cell with stem cell properties” (THE ROGOSIN INSTITUTE, INC., priority 2010, dated 2016).
